The text below walks through data of patent US11649255B2, “Indazoles as hematopoietic progenitor kinase 1 (HPK1) inhibitors and methods using same” (1st Biotherapeutics, Inc., priority 2020, dated 2023).

This experiment deals with recombinant human HPK1 (Homo sapiens (Human), UniProt Q92918). Nature of the experiment: HPK1 kinase assay (ADP-Glo). The format is biochemical. To be noted: 25 μM ATP, MBP substrate. An outline of the steps: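 Activity was read as ADP formed, detected by ADP-Glo luminescence after the reaction of 5 ng recombinant human HPK1 with MBP and ATP (stocks 0.5 μg/μl and 25 μM) for 40 min at 30 °C. Buffer was Tris pH 7.5 with MgCl2, BSA and DTT, with compound in 0.5% DMSO. IC50 came from inhibition curves.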
Sequence of recombinant human HPK1 (Q92918 whole entry): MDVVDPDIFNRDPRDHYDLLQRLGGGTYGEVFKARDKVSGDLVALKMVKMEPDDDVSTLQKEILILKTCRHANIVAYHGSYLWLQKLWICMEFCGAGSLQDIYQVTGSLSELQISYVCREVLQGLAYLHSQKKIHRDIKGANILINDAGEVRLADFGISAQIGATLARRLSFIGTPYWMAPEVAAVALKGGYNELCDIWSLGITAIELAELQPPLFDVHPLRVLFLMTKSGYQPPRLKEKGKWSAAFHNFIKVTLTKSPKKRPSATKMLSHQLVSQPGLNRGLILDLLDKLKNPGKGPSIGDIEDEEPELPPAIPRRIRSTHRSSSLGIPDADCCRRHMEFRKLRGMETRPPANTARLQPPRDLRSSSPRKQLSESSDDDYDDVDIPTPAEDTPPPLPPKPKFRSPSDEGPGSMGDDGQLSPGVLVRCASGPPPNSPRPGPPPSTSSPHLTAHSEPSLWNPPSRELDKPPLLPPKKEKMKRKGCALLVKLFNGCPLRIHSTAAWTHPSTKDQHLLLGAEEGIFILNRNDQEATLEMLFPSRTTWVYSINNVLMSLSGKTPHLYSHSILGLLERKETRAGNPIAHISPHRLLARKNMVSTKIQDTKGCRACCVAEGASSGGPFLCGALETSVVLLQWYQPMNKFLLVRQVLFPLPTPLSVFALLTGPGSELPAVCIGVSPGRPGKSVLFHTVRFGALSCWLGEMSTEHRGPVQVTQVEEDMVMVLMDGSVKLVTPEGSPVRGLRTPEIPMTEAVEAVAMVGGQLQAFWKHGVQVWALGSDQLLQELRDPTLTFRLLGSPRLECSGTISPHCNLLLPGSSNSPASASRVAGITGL
In general terms: ADP-Glo first removes unused ATP, then detects ADP through luciferase.
With `Cc1c(F)c([S+](C)[O-])c2[nH]ncc2c1-c1ccc2nc(NC(=O)[C@@H]3C[C@@H]3F)sc2c1` (stereo partly drawn) [Example 66, (1S,2S)-2-fluoro-N-(6-(6-fluoro-5-methyl-7-(methylsulfinyl)-1H-indazol-4-yl)benzo[d]thiazol-2-yl)cyclopropane-1-carboxamide], the IC50 was less than 100 nM.
On to `CN1CCN(c2c(F)c(Cl)c(-c3ccc4nc(NC(=O)[C@@H]5C[C@@H]5F)cn4c3)c3cn[nH]c23)C1=O` [Example 358, (1S,2S)-N-(6-(5-chloro-6-fluoro-7-(3-methyl-2-oxoimidazolidin-1-yl)-1H-indazol-4-yl)imidazo[1,2-a]pyridin-2-yl)-2-fluorocyclopropane-1-carboxamide], for which the IC50 is less than 100 nM.
As to `CNC(=O)c1c(F)c(Cl)c(-c2ccc3nc(NC(=O)[C@@H]4C[C@@H]4F)cn3c2)c2cn[nH]c12` [Example 321, 5-chloro-6-fluoro-4-(2-((1S,2S)-2-fluorocyclopropane-1-carboxamido)imidazo[1,2-a]pyridin-6-yl)-N-methyl-1H-indazole-7-carboxamide], the IC50 was less than 100 nM.
On to `CNC(=O)c1c(F)c(Cl)c(-c2ccn3nc(NC(=O)[C@@H]4C[C@@H]4F)cc3c2)c2cn[nH]c12` [Example 560, 5-chloro-6-fluoro-4-(2-((1S,2S)-2-fluorocyclopropane-1-carboxamido)pyrazolo[1,5-a]pyridin-5-yl)-N-methyl-1H-indazole-7-carboxamide], for which the IC50 is less than 100 nM.
`C=Cc1c(F)c(Cl)c(-c2ccc3nc(NC(=O)[C@@H]4C[C@@H]4F)sc3c2)c2cn[nH]c12` [Example 61, (1S,2S)-N-(6-(5-chloro-6-fluoro-7-vinyl-1H-indazol-4-yl)benzo[d]thiazol-2-yl)-2-fluorocyclopropane-1-carboxamide]: the IC50 is less than 100 nM.
As to `O=C(Nc1cn2cc(-c3c(Cl)c(F)c(N4CCCC4=O)c4[nH]ncc34)ccc2n1)[C@@H]1C[C@@H]1F` [Example 336, (1S,2S)-N-(6-(5-chloro-6-fluoro-7-(2-oxopyrrolidin-1-yl)-1H-indazol-4-yl)imidazo[1,2-a]pyridin-2-yl)-2-fluorocyclopropane-1-carboxamide], the IC50 was less than 100 nM.
`CCOc1c(F)cc2[nH]ncc2c1-c1ccc2nc(NC(=O)[C@@H]3C[C@@H]3F)sc2n1` [Example 201, (1S,2S)-N-(5-(5-ethoxy-6-fluoro-1H-indazol-4-yl)thiazolo[5,4-b]pyridin-2-yl)-2-fluorocyclopropane-1-carboxamide]: the IC50 is greater than 1000 nM.
For the compound `CNC(=O)c1c(F)c(C)c(-c2ccc3nc(NC(=O)[C@@H]4C[C@@H]4F)sc3n2)c2cn[nH]c12` [Example 206, 6-fluoro-4-(2-((1S,2S)-2-fluorocyclopropane-1-carboxamido)thiazolo[5,4-b]pyridin-5-yl)-N,5-dimethyl-1H-indazole-7-carboxamide], the IC50 was 101 to 500 nM.
As for `O=C(Nc1cc2cc(-c3c(Cl)c(F)c(N4CCCC4)c4[nH]ncc34)ccn2n1)[C@@H]1C[C@@H]1F` [Example 499, (1S,2S)-N-(5-(5-chloro-6-fluoro-7-(pyrrolidin-1-yl)-1H-indazol-4-yl)pyrazolo[1,5-a]pyridin-2-yl)-2-fluorocyclopropane-1-carboxamide], the IC50 is less than 100 nM.
The same measure for `CCOCc1c(F)c(Cl)c(-c2ccc3nc(NC(=O)[C@@H]4C[C@@H]4F)cn3c2)c2cn[nH]c12` [Example 391, (1S,2S)-N-(6-(5-chloro-7-(ethoxymethyl)-6-fluoro-1H-indazol-4-yl)imidazo[1,2-a]pyridin-2-yl)-2-fluorocyclopropane-1-carboxamide]: less than 100 nM; for `CNC(=O)c1c(F)c(C)c(-c2ccc3nc(NC(=O)[C@@H]4C[C@@H]4F)sc3c2)c2cn[nH]c12` [Example 132, 6-fluoro-4-(2-((1S,2S)-2-fluorocyclopropane-1-carboxamido)benzo[d]thiazol-6-yl)-N,5-dimethyl-1H-indazole-7-carboxamide]: 101 to 500 nM.
`CSc1c(F)cc2[nH]ncc2c1-c1ccn2nc(NC(=O)[C@@H]3C[C@H]3F)cc2c1` [Example 572, (1S,2R)-2-fluoro-N-(5-(6-fluoro-5-(methylthio)-1H-indazol-4-yl)pyrazolo[1,5-a]pyridin-2-yl)cyclopropane-1-carboxamide]: the IC50 was less than 100 nM.
Take `CSc1c(F)c(Cl)c(-c2ccc3nc(NC(=O)[C@@H]4C[C@@H]4F)cn3c2)c2cn[nH]c12` [Example 266, (1S,2S)-N-(6-(5-chloro-6-fluoro-7-(methylthio)-1H-indazol-4-yl)imidazo[1,2-a]pyridin-2-yl)-2-fluorocyclopropane-1-carboxamide]: the IC50 was less than 100 nM.
With `CCc1ccc2[nH]ncc2c1-c1ccc2nc(NC(=O)C3CC3)sc2c1` [Example 28, N-(6-(5-ethyl-1H-indazol-4-yl)benzo[d]thiazol-2-yl)cyclopropanecarboxamide], the IC50 was in the range of 101 to 500 nM.
In the case of `CC(=O)c1c(F)c(Cl)c(-c2ccc3nc(NC(=O)[C@@H]4C[C@@H]4F)sc3c2)c2cn[nH]c12` [Example 128, (1S,2S)-N-(6-(7-acetyl-5-chloro-6-fluoro-1H-indazol-4-yl)benzo[d]thiazol-2-yl)-2-fluorocyclopropane-1-carboxamide], the IC50 lay within 101 to 500 nM.
With `O=C(Nc1nc2ccc(-c3cc(F)c(OC(F)(F)F)c4[nH]ncc34)nc2s1)[C@@H]1C[C@@H]1F` [Example 215, (1S,2S)-2-fluoro-N-(5-(6-fluoro-7-(trifluoromethoxy)-1H-indazol-4-yl)thiazolo[5,4-b]pyridin-2-yl)cyclopropane-1-carboxamide] the figure was greater than 1000 nM; with `COC(=O)c1c(F)c(Cl)c(-c2ccc3nc(NC(=O)[C@@H]4C[C@@H]4F)sc3c2)c2cn[nH]c12` [Example 122, methyl 5-chloro-6-fluoro-4-(2-((1S,2S)-2-fluorocyclopropane-1-carboxamido)benzo[d]thiazol-6-yl)-1H-indazole-7-carboxylate], less than 100 nM.
As for `N#C/C=C/c1c(F)c(Cl)c(-c2ccn3nc(NC(=O)[C@@H]4C[C@@H]4F)cc3c2)c2cn[nH]c12` [Example 633, (1S,2S)-N-(5-(5-chloro-7-((E)-2-cyanovinyl)-6-fluoro-1H-indazol-4-yl)pyrazolo[1,5-a]pyridin-2-yl)-2-fluorocyclopropane-1-carboxamide], the IC50 is less than 100 nM.
For the compound `Cc1c(F)c(Cl)c2[nH]ncc2c1-c1ccc2nc(NC(=O)[C@@H]3C[C@@H]3F)cn2c1` [Example 260, (1S,2S)-N-(6-(7-chloro-6-fluoro-5-methyl-1H-indazol-4-yl)imidazo[1,2-a]pyridin-2-yl)-2-fluorocyclopropane-1-carboxamide], the IC50 is less than 100 nM.
On to `Cc1c(F)c(SCCO)c2[nH]ncc2c1-c1ccc2nc(NC(=O)[C@@H]3C[C@@H]3F)sc2n1` [Example 163, (1S,2S)-2-fluoro-N-(5-(6-fluoro-7-((2-hydroxyethyl)thio)-5-methyl-1H-indazol-4-yl)thiazolo[5,4-b]pyridin-2-yl)cyclopropane-1-carboxamide], for which the IC50 is less than 100 nM.
On to `COc1c(F)cc2[nH]ncc2c1-c1ccc2nc(NC(=O)C3CC3)cn2c1` [Example 252, N-(6-(6-fluoro-5-methoxy-1H-indazol-4-yl)imidazo[1,2-a]pyridin-2-yl)cyclopropanecarboxamide], for which the IC50 was less than 100 nM.
Consider `CC(NC=O)c1c(F)c(Cl)c(-c2ccn3nc(NC(=O)[C@@H]4C[C@@H]4F)cc3c2)c2cn[nH]c12` (stereo partly drawn) [Example 659, (1S,2S)-N-(5-(5-chloro-6-fluoro-7-(1-formamidoethyl)-1H-indazol-4-yl)pyrazolo[1,5-a]pyridin-2-yl)-2-fluorocyclopropane-1-carboxamide], for which the IC50 was less than 100 nM.
Consider `C[S+]([O-])c1c(F)c(Cl)c(-c2ccc3nc(NC(=O)[C@@H]4C[C@@H]4F)sc3c2)c2cn[nH]c12` (stereo partly drawn) [Example 63, (1S,2S)-N-(6-(5-chloro-6-fluoro-7-(methylsulfinyl)-1H-indazol-4-yl)benzo[d]thiazol-2-yl)-2-fluorocyclopropane-1-carboxamide], for which the IC50 was less than 100 nM.
Consider `CC(c1c(F)c(Cl)c(-c2ccc3nc(NC(=O)[C@@H]4C[C@@H]4F)cn3c2)c2cn[nH]c12)n1cnnn1` (stereo partly drawn) [Example 398, (1S,2S)-N-(6-(7-(1-(1H-tetrazol-1-yl)ethyl)-5-chloro-6-fluoro-1H-indazol-4-yl)imidazo[1,2-a]pyridin-2-yl)-2-fluorocyclopropane-1-carboxamide], for which the IC50 was less than 100 nM.
For the compound `CC1CN(c2c(F)c(Cl)c(-c3ccn4nc(NC(=O)[C@@H]5C[C@@H]5F)cc4c3)c3cn[nH]c23)C1` [Example 630, (1S,2S)-N-(5-(5-chloro-6-fluoro-7-(3-methylazetidin-1-yl)-1H-indazol-4-yl)pyrazolo[1,5-a]pyridin-2-yl)-2-fluorocyclopropane-1-carboxamide], the IC50 was less than 100 nM.
With `CC(NC1COC1)c1c(F)c(Cl)c(-c2ccc3nc(NC(=O)[C@@H]4C[C@@H]4F)cn3c2)c2cn[nH]c12` (stereo partly drawn) [Example 427, (1S,2S)-N-(6-(5-chloro-6-fluoro-7-(1-(oxetan-3-ylamino)ethyl)-1H-indazol-4-yl)imidazo[1,2-a]pyridin-2-yl)-2-fluorocyclopropane-1-carboxamide] the figure was less than 100 nM; with `CN(c1ncc(F)cn1)c1c(F)c(Cl)c(-c2ccn3nc(NC(=O)[C@@H]4C[C@@H]4F)cc3c2)c2cn[nH]c12` [Example 613, (1S,2S)-N-(5-(5-chloro-6-fluoro-7-((5-fluoropyrimidin-2-yl)(methyl)amino)-1H-indazol-4-yl)pyrazolo[1,5-a]pyridin-2-yl)-2-fluorocyclopropane-1-carboxamide], less than 100 nM; with `COCCSc1c(F)c(Cl)c(-c2ccc3nc(NC(=O)[C@@H]4C[C@@H]4F)sc3c2)c2cn[nH]c12` [Example 71, (1S,2S)-N-(6-(5-chloro-6-fluoro-7-((2-methoxyethyl)thio)-1H-indazol-4-yl)benzo[d]thiazol-2-yl)-2-], less than 100 nM.

In general, IC50 refers to the midpoint of a concentration-inhibition curve.
